Assay results taken from US9936705B2, “Biocide formulation for protecting the skin, comprising pentahydrate copper salts and heptahydrate zinc salts” (priority 2014, dated 2018).
Several values for one entry are separate records, joined by “and”; a condition that tells them apart may be missing. Equal values may be shown once.

Columns and labels:
Assay in all cases: Sensitivity to antimicrobial agents, Kirby-Bauer disk methodology
Assay type in all cases: cell-based
CNS = settings: clinical bovine mastitis isolates
Protocol: (§1) The following antimicrobial agents were assessed (Oxoid Ltd. Hampshire, England): • Amoxicillin/clavulanic acid (AMC), • Trimethropin/sulfamethoxazole (SXT), • Cefotaxime (CTX), • Gentamicin (GN) and • Neomycin (NE).
(§2) The bacterial specimens were analyzed according to the Kirby-Bauer disk methodology following the recommendations provided by the guidelines of the Clinical Laboratory Standards Institute (CLSI 2012b) and the BSAC standard (Andrews and Trial 2008).
(§3) The microorganisms were incubated in Mueller Hinton agar plates at 35° C. for 18-24 hours in aerobics atmosphere. As quality control E. coli (ATCC 25922) and Staphylococcus aureus (25923) were used. The CLSI cut-off points were used to interpret the susceptibility of all microbial agents. For the determination of the cut-off point value for neomycin (NE), the BSAC standard was applied.

E. coli = settings: Central Region, clinical bovine mastitis isolates
Protocol: as §1, §2, §3

S. aureus = settings: Southern Region, clinical bovine mastitis isolates
Protocol: as §1, §2, §3

S. uberis = settings: Southern Region, clinical bovine mastitis isolates
Protocol: as §1, §2, §3

Molecule | Resistant (%) (CNS; Central Region) | Resistant N° (CNS; Central Region) | Resistant (%) (CNS; Southern Region) | Resistant N° (CNS; Southern Region) | Resistant (%) (E. coli) | Resistant N° (E. coli) | Resistant (%) (S. aureus) | Resistant N° (S. aureus) | Resistant (%) (S. uberis) | Resistant N° (S. uberis) | Resistant (%) (S. uberis; listed as CTK)
Trimethropin/sulfamethoxazole [SXT] | 0.0 | 0 | 0.0 | 0 | 15.4% | 2 | 3.6 | 1 | 0.0% | 0 | 
NC[C@@H]1O[C@H](O[C@H]2[C@@H](O)[C@H](O[C@@H]3[C@@H](O)[C@H](N)C[C@H](N)[C@H]3O[C@H]3O[C@H](CN)[C@@H](O)[C@H](O)[C@H]3N)O[C@@H]2CO)[C@H](N)[C@@H](O)[C@@H]1O [Ne, Neomycin] | 15.4 | 2 | 5.9 | 1 | 54% and 53.8% | 7 | 21.4 | 6 | 52% and 52.4% | 11 | 
Gentamicin [GN] | 0.0 | 0 | 0.0 | 0 | 15.4% | 2 | 0.0 | 0 | 43% and 42.9% | 9 | 
CO/N=C(\C(=O)N[C@@H]1C(=O)N2C(C(=O)O)=C(COC(C)=O)CS[C@H]12)c1csc(N)n1 [CTX, Cefotaxime] | 0.0 | 0 | 5.9 | 1 | 15.4% | 2 | 3.6 | 1 | 23.8% | 5 | 24
Amoxicillin/clavulanic acid [AMC] | 0.0 | 0 | 0.0 | 0 | 23.0% | 3 | 7.1 | 2 | 0.0% | 0 | 
